Experimental data reported in article PMC4010493, “Molecular Characterization and Expression Analysis of ATP-Gated P2X7 Receptor Involved in Japanese Flounder (Paralichthys olivaceus) Innate Immune Response” (PLoS ONE, 2014).

Experiments:
Assay type in all cases: cell-based
rP2RX7 [1] = target: T1, rP2RX7 (Rattus norvegicus, UniProt Q64663); test: two-electrode voltage clamp, inhibition of ATP-evoked current; settings: antagonist; 2 min pre-application, then co-applied with ATP; -70 mV, pH 7.5
T1 construct: gene P2rx7; rat P2RX7 cDNA in Xenopus laevis oocytes; homotrimer
T1 sequence (Q64663 1-595): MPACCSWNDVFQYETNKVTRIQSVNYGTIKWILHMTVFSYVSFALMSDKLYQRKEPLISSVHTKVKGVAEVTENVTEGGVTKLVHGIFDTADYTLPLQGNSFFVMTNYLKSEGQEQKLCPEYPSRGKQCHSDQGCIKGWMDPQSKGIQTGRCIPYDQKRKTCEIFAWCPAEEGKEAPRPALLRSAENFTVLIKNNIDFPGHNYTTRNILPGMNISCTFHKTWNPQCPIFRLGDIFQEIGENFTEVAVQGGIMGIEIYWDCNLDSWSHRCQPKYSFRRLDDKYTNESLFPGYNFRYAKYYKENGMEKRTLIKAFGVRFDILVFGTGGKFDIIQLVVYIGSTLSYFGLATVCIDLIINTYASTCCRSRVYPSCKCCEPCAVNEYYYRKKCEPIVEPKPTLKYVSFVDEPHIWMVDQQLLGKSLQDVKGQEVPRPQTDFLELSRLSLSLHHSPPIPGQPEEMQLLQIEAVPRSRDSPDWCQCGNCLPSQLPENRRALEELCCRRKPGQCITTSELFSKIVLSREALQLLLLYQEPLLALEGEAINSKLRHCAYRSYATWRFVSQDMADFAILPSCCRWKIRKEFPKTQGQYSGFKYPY

poP2RX7 [2] = target: T2, poP2RX7 (Paralichthys olivaceus, UniProt A0A059T2C6); test: as above; settings: antagonist; 2 min pre-application, then co-applied with ATP; -70 mV, pH 7.5
T2 construct: Xenopus laevis oocytes; homotrimer

rP2RX7 [3] = target: T1, rP2RX7; test: two-electrode voltage clamp, Xenopus oocytes
poP2RX7 [4] = target: T2, poP2RX7; test: two-electrode voltage clamp, Xenopus oocytes
poP2RX7 [5] = target: T2, poP2RX7; test: two-electrode voltage clamp, inhibition of ATP-evoked current; settings: antagonist; 2 min pre-application, then co-applied with ATP; -70 mV, pH 7.5; remark: listed apart in the source

T2 sequence (A0A059T2C6 entry or part of it): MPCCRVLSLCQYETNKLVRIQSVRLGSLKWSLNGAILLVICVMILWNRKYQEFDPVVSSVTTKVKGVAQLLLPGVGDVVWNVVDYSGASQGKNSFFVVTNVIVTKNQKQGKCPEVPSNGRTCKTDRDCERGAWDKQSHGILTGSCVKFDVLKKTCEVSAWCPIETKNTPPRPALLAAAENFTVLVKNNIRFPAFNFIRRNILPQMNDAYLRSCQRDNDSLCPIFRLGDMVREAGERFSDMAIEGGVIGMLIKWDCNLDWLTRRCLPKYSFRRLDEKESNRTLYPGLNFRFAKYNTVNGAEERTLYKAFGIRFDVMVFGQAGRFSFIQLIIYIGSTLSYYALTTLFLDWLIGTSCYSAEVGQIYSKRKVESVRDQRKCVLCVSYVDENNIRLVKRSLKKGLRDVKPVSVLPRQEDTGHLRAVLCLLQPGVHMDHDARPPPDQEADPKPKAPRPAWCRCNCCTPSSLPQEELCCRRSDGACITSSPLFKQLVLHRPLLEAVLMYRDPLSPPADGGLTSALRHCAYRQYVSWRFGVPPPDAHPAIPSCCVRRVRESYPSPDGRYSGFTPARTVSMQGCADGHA

EC50 (rP2RX7 [3])	EC50 (poP2RX7 [4])	Compound	inhibition (rP2RX7 [1])	inhibition at 1 μM (poP2RX7 [2])	inhibition at 20 μM (poP2RX7 [5])
		CCOc1ccc(Nc2ccc(C(=C3C=CC(=[N+](CC)Cc4cccc(S(=O)(=O)[O-])c4)C=C3C)c3ccc(N(CC)Cc4cccc(S(=O)(=O)O)c4)cc3C)cc2)cc1 [BBG]	inhibition induced by BBG or AZ10606120 (AZ) at poP2RX7 (open bars) and rP2RX7	ATP-evoked currents at poP2RX7 could be inhibited by both of the antagonists	
13.3 ± 1.6 µM	743 ± 299 µM	Nc1ncnc2c1ncn2[C@@H]1O[C@H](COP(=O)(O)OP(=O)(O)OP(=O)(O)O)[C@@H](OC(=O)c2ccc(C(=O)c3ccccc3)cc2)[C@H]1O [BzATP]			
376 ± 120 µM	790 ± 81 µM	Nc1ncnc2c1ncn2[C@@H]1O[C@H](COP(=O)(O)OP(=O)(O)OP(=O)(O)O)[C@@H](O)[C@H]1O [ATP]			
		O=C(CC12CC3CC(CC(C3)C1)C2)Nc1cccc2nc(NCCNCCO)ccc12 [AZ10606120]	AZ10606120 was less potent in poP2RX7 than in rP2RX7		AZ10606120 was less potent in poP2RX7 than in rP2RX7
